The CheMixHub viscosity set
± gives the uncertainty stated by the source.

Test: xn = mol fraction of the nth substance listed

O=C([O-])c1ccccc1O.[Na+] + O
viscosity [mPa·s]
Conditions | 293.15 K | 298.15 K | 303.15 K | 308.15 K | 313.15 K | 318.15 K
100 kPa, x1 = 5.685e-05 | 1.003 ± 0.021 | 0.8913 ± 0.019 | 0.7982 ± 0.017 | 0.7198 ± 0.015 | 0.6537 ± 0.014 | –
100 kPa, x1 = 0.0001129 | 1.006 ± 0.021 | 0.8924 ± 0.019 | 0.7983 ± 0.017 | 0.7207 ± 0.015 | 0.6543 ± 0.014 | –
100 kPa, x1 = 0.0004518 | 1.013 ± 0.021 | 0.8989 ± 0.019 | 0.8049 ± 0.017 | 0.7259 ± 0.015 | 0.659 ± 0.014 | –
100 kPa, x1 = 0.0009067 | 1.024 ± 0.021 | 0.9079 ± 0.019 | 0.8132 ± 0.017 | 0.7334 ± 0.015 | 0.6657 ± 0.014 | –
100 kPa, x1 = 0.001366 | 1.037 ± 0.022 | 0.9164 ± 0.019 | 0.8198 ± 0.017 | 0.7394 ± 0.015 | 0.6711 ± 0.014 | –
100 kPa, x1 = 0.001826 | 1.045 ± 0.022 | 0.9259 ± 0.019 | 0.8289 ± 0.017 | 0.748 ± 0.016 | 0.6781 ± 0.014 | –
100 kPa, x1 = 0.002292 | 1.056 ± 0.022 | 0.9367 ± 0.02 | 0.8375 ± 0.018 | 0.7552 ± 0.016 | 0.6844 ± 0.014 | –
100 kPa, x1 = 0.00276 | 1.067 ± 0.022 | 0.9449 ± 0.02 | 0.8458 ± 0.018 | 0.7614 ± 0.016 | 0.6908 ± 0.015 | –
100 kPa, x1 = 0.003231 | 1.076 ± 0.023 | 0.9506 ± 0.02 | 0.8501 ± 0.018 | 0.7666 ± 0.016 | 0.6959 ± 0.015 | –
101 kPa, x1 = 0.000472 | 1.014 ± 0.022 | 0.9009 ± 0.019 | – | – | – | –
101 kPa, x1 = 0.000925 | 1.025 ± 0.022 | 0.9102 ± 0.019 | – | – | – | –
101 kPa, x1 = 0.001 | 1.025 ± 0.013 | 0.9152 ± 0.011 | 0.8184 ± 0.01 | 0.7362 ± 0.0091 | 0.6684 ± 0.0083 | 0.6111 ± 0.0075
101 kPa, x1 = 0.00135 | 1.036 ± 0.022 | 0.9188 ± 0.019 | – | – | – | –
101 kPa, x1 = 0.0018 | 1.046 ± 0.022 | 0.9279 ± 0.02 | – | – | – | –
101 kPa, x1 = 0.002 | 1.05 ± 0.013 | 0.9359 ± 0.011 | 0.8392 ± 0.01 | 0.7538 ± 0.0093 | 0.6817 ± 0.0084 | 0.6235 ± 0.0077
101 kPa, x1 = 0.00224 | 1.057 ± 0.023 | 0.937 ± 0.02 | – | – | – | –
101 kPa, x1 = 0.002288 | – | 0.946 ± 0.009 | 0.842 ± 0.008 | 0.757 ± 0.007 | 0.684 ± 0.007 | –
101 kPa, x1 = 0.002647 | 1.067 ± 0.023 | 0.9454 ± 0.02 | – | – | – | –
101 kPa, x1 = 0.003578 | 1.089 ± 0.023 | – | – | – | – | –
101 kPa, x1 = 0.004685 | – | 0.983 ± 0.009 | 0.875 ± 0.008 | 0.786 ± 0.007 | 0.714 ± 0.007 | –
101 kPa, x1 = 0.005317 | 1.131 ± 0.024 | – | – | – | – | –
101 kPa, x1 = 0.007012 | 1.171 ± 0.025 | – | – | – | – | –
101 kPa, x1 = 0.009424 | – | 1.083 ± 0.01 | 0.963 ± 0.009 | 0.863 ± 0.008 | 0.781 ± 0.007 | –
101 kPa, x1 = 0.01337 | – | 1.188 ± 0.011 | 1.055 ± 0.01 | 0.944 ± 0.009 | 0.846 ± 0.008 | –
101 kPa, x1 = 0.01919 | – | 1.354 ± 0.012 | 1.195 ± 0.011 | 1.063 ± 0.01 | 0.95 ± 0.009 | –
101 kPa, x1 = 0.02192 | – | 1.44 ± 0.013 | 1.265 ± 0.012 | 1.125 ± 0.01 | 1.008 ± 0.009 | –
101 kPa, x1 = 0.02737 | – | 1.628 ± 0.015 | 1.423 ± 0.013 | 1.261 ± 0.012 | 1.132 ± 0.01 | –

CCCCN + CCCCO
Conditions | viscosity [mPa·s]
293.15 K, 101 kPa, x1 = 0.1 | 2.51 ± 0.06
293.15 K, 101 kPa, x1 = 0.3 | 1.85 ± 0.05
293.15 K, 101 kPa, x1 = 0.5 | 1.25 ± 0.03
293.15 K, 101 kPa, x1 = 0.7 | 0.95 ± 0.02
293.15 K, 101 kPa, x1 = 0.9 | 0.68 ± 0.02
298.15 K, 100 kPa, x2 = 0.099 | 0.553 ± 0.012
298.15 K, 100 kPa, x2 = 0.195 | 0.663 ± 0.014
298.15 K, 100 kPa, x2 = 0.294 | 0.794 ± 0.017
298.15 K, 100 kPa, x2 = 0.401 | 0.951 ± 0.021
298.15 K, 100 kPa, x2 = 0.493 | 1.101 ± 0.024
298.15 K, 100 kPa, x2 = 0.6 | 1.312 ± 0.028
298.15 K, 100 kPa, x2 = 0.695 | 1.531 ± 0.033
298.15 K, 100 kPa, x2 = 0.8 | 1.818 ± 0.039
298.15 K, 100 kPa, x2 = 0.893 | 2.131 ± 0.046
298.15 K, 101.32 kPa, x2 = 0.0983 | 0.5497 ± 0.0057
298.15 K, 101.32 kPa, x2 = 0.1986 | 0.6488 ± 0.0066
298.15 K, 101.32 kPa, x2 = 0.2972 | 0.7685 ± 0.0077
298.15 K, 101.32 kPa, x2 = 0.4004 | 0.9222 ± 0.0091
298.15 K, 101.32 kPa, x2 = 0.4976 | 1.085 ± 0.011
298.15 K, 101.32 kPa, x2 = 0.5988 | 1.291 ± 0.013
298.15 K, 101.32 kPa, x2 = 0.7009 | 1.518 ± 0.015
298.15 K, 101.32 kPa, x2 = 0.7974 | 1.782 ± 0.017
298.15 K, 101.32 kPa, x2 = 0.899 | 2.123 ± 0.021
303.15 K, 101 kPa, x1 = 0.01068 | 2.228 ± 0.015
303.15 K, 101 kPa, x1 = 0.02055 | 2.205 ± 0.015
303.15 K, 101 kPa, x1 = 0.0277 | 2.185 ± 0.014
303.15 K, 101 kPa, x1 = 0.04127 | 2.155 ± 0.014
303.15 K, 101 kPa, x1 = 0.05004 | 2.135 ± 0.014
303.15 K, 101 kPa, x1 = 0.05896 | 2.116 ± 0.014
303.15 K, 101 kPa, x1 = 0.07244 | 2.087 ± 0.014
303.15 K, 101 kPa, x1 = 0.08331 | 2.059 ± 0.014
303.15 K, 101 kPa, x1 = 0.09019 | 2.04 ± 0.014
303.15 K, 101.33 kPa, x1 = 0.092 | 2.08 ± 0.016
303.15 K, 101.33 kPa, x1 = 0.1008 | 1.909 ± 0.017
303.15 K, 101.33 kPa, x1 = 0.1886 | 1.829 ± 0.014
303.15 K, 101.33 kPa, x1 = 0.2007 | 1.627 ± 0.015
303.15 K, 101.33 kPa, x1 = 0.2824 | 1.565 ± 0.012
303.15 K, 101.33 kPa, x1 = 0.3004 | 1.395 ± 0.013
303.15 K, 101.33 kPa, x1 = 0.3824 | 1.314 ± 0.01
303.15 K, 101.33 kPa, x1 = 0.4 | 1.191 ± 0.011
303.15 K, 101.33 kPa, x1 = 0.5009 | 1.019 ± 0.01
303.15 K, 101.33 kPa, x1 = 0.5186 | 1.036 ± 0.0084
303.15 K, 101.33 kPa, x1 = 0.6001 | 0.869 ± 0.008
303.15 K, 101.33 kPa, x1 = 0.6186 | 0.8627 ± 0.0071
303.15 K, 101.33 kPa, x1 = 0.6997 | 0.734 ± 0.007
303.15 K, 101.33 kPa, x1 = 0.7158 | 0.7221 ± 0.0061
303.15 K, 101.33 kPa, x1 = 0.7999 | 0.625 ± 0.006
303.15 K, 101.33 kPa, x1 = 0.8131 | 0.6087 ± 0.0053
303.15 K, 101.33 kPa, x1 = 0.9001 | 0.536 ± 0.005
303.15 K, 101.33 kPa, x1 = 0.9011 | 0.5224 ± 0.0047
313.15 K, 101.3 kPa, x2 = 0.0992 | 0.4434 ± 0.0046
313.15 K, 101.3 kPa, x2 = 0.1967 | 0.516 ± 0.0052
313.15 K, 101.3 kPa, x2 = 0.2981 | 0.602 ± 0.0058
313.15 K, 101.3 kPa, x2 = 0.398 | 0.7038 ± 0.0066
313.15 K, 101.3 kPa, x2 = 0.4956 | 0.8181 ± 0.0074
313.15 K, 101.3 kPa, x2 = 0.5979 | 0.9549 ± 0.0084
313.15 K, 101.3 kPa, x2 = 0.6978 | 1.108 ± 0.0096
313.15 K, 101.3 kPa, x2 = 0.8009 | 1.289 ± 0.011
313.15 K, 101.3 kPa, x2 = 0.9 | 1.503 ± 0.013
313.15 K, 101.33 kPa, x1 = 0.092 | 1.662 ± 0.013
313.15 K, 101.33 kPa, x1 = 0.1008 | 1.518 ± 0.014
313.15 K, 101.33 kPa, x1 = 0.1886 | 1.476 ± 0.012
313.15 K, 101.33 kPa, x1 = 0.2007 | 1.305 ± 0.012
313.15 K, 101.33 kPa, x1 = 0.2824 | 1.286 ± 0.01
313.15 K, 101.33 kPa, x1 = 0.3004 | 1.12 ± 0.01
313.15 K, 101.33 kPa, x1 = 0.3824 | 1.086 ± 0.0088
313.15 K, 101.33 kPa, x1 = 0.4 | 0.976 ± 0.009
313.15 K, 101.33 kPa, x1 = 0.5009 | 0.843 ± 0.008
313.15 K, 101.33 kPa, x1 = 0.5186 | 0.856 ± 0.0071
313.15 K, 101.33 kPa, x1 = 0.6001 | 0.73 ± 0.007
313.15 K, 101.33 kPa, x1 = 0.6186 | 0.7186 ± 0.0061
313.15 K, 101.33 kPa, x1 = 0.6997 | 0.622 ± 0.006
313.15 K, 101.33 kPa, x1 = 0.7158 | 0.6085 ± 0.0053
313.15 K, 101.33 kPa, x1 = 0.7999 | 0.539 ± 0.006
313.15 K, 101.33 kPa, x1 = 0.8131 | 0.5227 ± 0.0047
313.15 K, 101.33 kPa, x1 = 0.9001 | 0.47 ± 0.005
313.15 K, 101.33 kPa, x1 = 0.9011 | 0.4542 ± 0.0042
323.15 K, 101.33 kPa, x1 = 0.1008 | 1.228 ± 0.011
323.15 K, 101.33 kPa, x1 = 0.2007 | 1.065 ± 0.01
323.15 K, 101.33 kPa, x1 = 0.3004 | 0.92 ± 0.009
323.15 K, 101.33 kPa, x1 = 0.4 | 0.803 ± 0.008
323.15 K, 101.33 kPa, x1 = 0.5009 | 0.7 ± 0.007
323.15 K, 101.33 kPa, x1 = 0.6001 | 0.615 ± 0.006
323.15 K, 101.33 kPa, x1 = 0.6997 | 0.534 ± 0.005
323.15 K, 101.33 kPa, x1 = 0.7999 | 0.467 ± 0.005
323.15 K, 101.33 kPa, x1 = 0.9001 | 0.407 ± 0.004
